Measurements published in patent EP0348560A1, “Oral composition” (LION CORPORATION, priority 1988, dated 1990).

Tested on: Streptococcus mutans (strain 6715)
Assay: Incubation Adhesion Method: inhibition of dental plaque formation
Assay type: cell-based
Conditions: for Synergistic effect: class by inhibiting rate; for formation of dental plaque: combined with α-bisabolol, conclusion in words from Table 1
Method: α-Bisabolol, menthol, eugenol, 3-octanol, methyl salicylate, carvone and cineol are used as samples to evaluate their effects on inhibiting the formation of dental plaque by Incubation Adhesion Method.
Incubation Adhesion Method
A predetermined amount (0, 4 or 8 µg/mℓ) of α-bisabolol and 125 µg/mℓ of menthol, eugenol, 3-octanol, methyl salicylate, carvone or cineol were added to a BHI (brain heart infusion) medium containing 1% of sucrose. Then, Streptococcus mutans (strain 6715) was inoculated to the medium and incubated at 37°C for 16 hours under an anaerobic condition (N₂: CO₂ :H₂ = 80:10:10). After incubation, the resulting dental plaque was washed twice with water and dispersed in the same amount of 0.5-N NaOH solution. To determine the amount of dental plaque formed, the suspension of dental plaque was examined for absorbance (turbidity) at a wavelength of 550 nm.
Inhiviting rate of dental plaque formation (%) [formula] A : Absorbance (O.D. 550nm) of the control B : Absorbance (O.D. 550nm) of the sample

[1] = 125 µg/mℓ sample alone, content of α-bisabolol 0 µg/mℓ, BHI medium with 1% sucrose, 37°C, 16 hours, anaerobic
[2] = 125 µg/mℓ sample combined with α-bisabolol 4 µg/mℓ, BHI medium with 1% sucrose, 37°C, 16 hours, anaerobic
[3] = 125 µg/mℓ sample combined with α-bisabolol 4 µg/mℓ
[4] = 125 µg/mℓ sample combined with α-bisabolol 8 µg/mℓ, BHI medium with 1% sucrose, 37°C, 16 hours, anaerobic
[5] = 125 µg/mℓ sample combined with α-bisabolol 8 µg/mℓ
[6] = α-bisabolol 4 µg/mℓ alone (line 'Control', no sample added)
[7] = α-bisabolol 8 µg/mℓ alone (line 'Control', no sample added)

| Compound | Amount of dental plaque formation (O.D., 550nm) [1] | Inhibiting rate of dental plaque formation (%) [1] | Amount of dental plaque formation (O.D., 550nm) [2] | Inhibiting rate of dental plaque formation (%) [2] | Synergistic effect [3] | Amount of dental plaque formation (O.D., 550nm) [4] | Inhibiting rate of dental plaque formation (%) [4] | Synergistic effect [5] | formation of dental plaque | Amount of dental plaque formation (O.D., 550nm) [6] | Inhibiting rate of dental plaque formation (%) [6] | Amount of dental plaque formation (O.D., 550nm) [7] | Inhibiting rate of dental plaque formation (%) [7] |
| --- | --- | --- | --- | --- | --- | --- | --- | --- | --- | --- | --- | --- | --- |
| CC1CCC(C(C)C)C(O)C1 (stereo not shown) [Menthol, menthol] | 0.60 O.D. | 3.2% | 0.01 O.D. | 98.4% | ⓞ (Inhibiting rate is not less than 80%) | 0.01 O.D. | 98.4% | ⓞ (Inhibiting rate is not less than 80%) | synergistically suppressed | – | – | – | – |
| α-bisabolol | – | – | – | – | – | – | – | – | – | 0.61 O.D. | 1.6% | 0.60 O.D. | 3.2% |
| COC(=O)c1ccccc1O [Methyl salicylate, methyl salicylate, reference compound] | 0.61 O.D. | 1.6% | 0.61 O.D. | 1.6% | × (Inhibiting rate is less than 20%) | 0.39 O.D. | 37.1% | Δ (Inhibiting rate is not less than 20%, less than 50 %) | – | – | – | – | – |
| C=C(C)C1CC=C(C)C(=O)C1 (stereo not shown) [Carvone, carvone, reference compound] | 0.62 O.D. | 0% | 0.60 O.D. | 3.2% | × (Inhibiting rate is less than 20%) | 0.42 O.D. | 32.3% | Δ (Inhibiting rate is not less than 20%, less than 50 %) | – | – | – | – | – |
| CCCCCC(O)CC (stereo not shown) [3-Octanol, 3-octanol] | 0.59 O.D. | 4.8% | 0.58 O.D. | 6.5% | × (Inhibiting rate is less than 20%) | 0.06 O.D. | 90.3% | ⓞ (Inhibiting rate is not less than 80%) | synergistically suppressed | – | – | – | – |
| C=CCc1ccc(O)c(OC)c1 [Eugenol, eugenol] | 0.62 O.D. | 0% | 0.60 O.D. | 3.2% | × (Inhibiting rate is less than 20%) | 0.02 O.D. | 96.8% | ⓞ (Inhibiting rate is not less than 80%) | synergistically suppressed | – | – | – | – |
| CC12CCC(CC1)C(C)(C)O2 [Cineol, cineol, reference compound] | 0.62 O.D. | 0% | 0.59 O.D. | 4.8% | × (Inhibiting rate is less than 20%) | 0.53 O.D. | 14.5% | × (Inhibiting rate is less than 20%) | – | – | – | – | – |
